Consider 22 compounds from patent US6472198B1, “Slow release substrates for driving microbial transformations of environmental contaminants” (The State of Oregon Acting by and through the State Board …, priority 1998, dated 2002).

Data set [1] can be described thus: Hydrolysis rate category of organosilanes and organosiloxanes, approximately based on half lives. Format: physicochemical. Further details: key: Slow - 1 month; Very Slow - Several months; Very Fast - days; Fast - weeks.
A short description of data set [2]: Abiotic hydrolysis of TBOS and TKEBS in sterilized pH buffered solutions. Format: physicochemical.
In data set [3] the test system is Pt. Mugu groundwater and aquifer solids microcosm. As to the kind of experiment: Anaerobic reductive dechlorination of TCE in Pt. Mugu microcosm amended with TBOS. Format: cell-based. The following applies: TCE 5 mg/L, TBOS 1 g/L, Pt. Mugu microcosm.
Setting [4] is: organosiloxanes, Table 2, key given under Table 1.
The mark [5] stands for this setting: organosilanes, Table 1, rates approximately based on half lives.

Entries after “also recorded” stand apart in the source; their conditions may differ.

For the compound `c1ccc(O[Si](Oc2ccccc2)(Oc2ccccc2)O[Si](Oc2ccccc2)(Oc2ccccc2)Oc2ccccc2)cc1` [compound 22], the Hydrolysis rate entry in data set [1] (setting [4]) is on record as “Slow (Slow - 1 month)”.
With `CCC(CC)CO[Si](OCC(CC)CC)(OCC(CC)CC)OCC(CC)CC` [No. 3, Tetrakis(2-ethylbutoxy) silane], in data set [2] (listed as TKEBS), the “rate of hydrolysis compared with TBOS” value is listed as “much slower rate; also recorded: about an order of magnitude lower”. The “Rates of Hydrolysis Based on 2-ethyl-butanol production” value was found to be 0.023 µmol/day in data set [2] (pH 5.0, 30 °C, 10 mg/L); 0.011 µmol/day in data set [2] (pH 7.0, 15 °C, 10 mg/L); 0.012 µmol/day in data set [2] (pH 7.0, 30 °C, 10 mg/L); 0.105 µmol/day in data set [2] (pH 7.0, 30 °C, 100 mg/L); 0.011 µmol/day in data set [2] (pH 7.8 (site groundwater), 30 °C, 10 mg/L); 0.022 µmol/day in data set [2] (pH 9.0, 30 °C, 10 mg/L). The “effect of temperature on hydrolysis” value in data set [2] (pH 7, 10 mg/L, 15 °C vs 30 °C) is recorded as “Very little increase”. For the same compound, in data set [2] (pH 7, 30 °C, 10 mg/L to 100 mg/L), the “factor of increase in rate of hydrolysis on ten-fold increase in concentration” value worked out at 10.
`CC(C)CO[Si](OCC(C)C)(OCC(C)C)OCC(C)C` [compound 15, Tetrakis(2-methylpropoxy) silane]: the Hydrolysis rate result in data set [1] (setting [5]) was “Slow (Slow - 1 month)”.
As to `CCO[Si](OCC)(OCC)O[Si](OCC)(OCC)OCC` [compound 19], the Hydrolysis rate entry in data set [1] (setting [4]) is “Slow (Slow - 1 month)”.
With `CCC(C)O[Si](OC(C)CC)(OC(C)CC)OC(C)CC` (stereo not drawn) [compound 14, Tetrakis(1-methylpropoxy) silane], the Hydrolysis rate result in data set [1] (setting [5]) is given as “Slow (Slow - 1 month)”.
On to `C=CCl` [VC, vinyl chloride], for which the “incubation time after which dechlorination of the substance was observed” value in data set [3] is “about 125 days”.
Turning to `CCO[Si](OCC)(OCC)O[Si](OCC)(OCC)O[Si](OCC)(OCC)OCC` [compound 23], the Hydrolysis rate result in data set [1] (setting [4]) is recorded as “Slow (Slow - 1 month)”.
As for `C=CCO[Si](OCC=C)(OCC=C)OCC=C` [compound 11, Tetraallyloxy silane], the Hydrolysis rate result in data set [1] (setting [5]) is reported as “Slow (Slow - 1 month)”.
Same read-out and setting: in the case of `CCC(=O)O[Si](OC(=O)CC)(OC(=O)CC)OC(=O)CC` [compound 6, Silicon tetrapropionate] it was “Fast”.
The same measure, in the same setting: for “Tetrakis(benzylmethoxy) silane [compound 16]” the value was “Fast”; for `CCCCO[Si](OCCCC)(OCCCC)OCCCC` [compound 2, Tetrabutoxysilane], “Slow (Slow - 1 month)”.
For Tetraphenoxysilane [compound 4], the Hydrolysis rate entry in data set [1] (setting [5]) is listed as “Very Fast”.
Take `CCC(CC)CO[Si](OCC(CC)CC)(OCC(CC)CC)OCC(CC)CC` [compound 3, Tetrakis(2-ethylbutoxy) silane]: the Hydrolysis rate result in data set [1] (setting [5]) is “Very Slow”.
Take `CCCO[Si](OCCC)(OCCC)O[Si](OCCC)(OCCC)OCCC` [compound 20]: the Hydrolysis rate result in data set [1] (setting [4]) was “Slow (Slow - 1 month)”.
For “Tetrakis(1-hydroxypropoxy) silane [compound 17]”, in data set [1] (setting [5]), the Hydrolysis rate result is “Fast”.
Take `CCCC(=O)O[Si](OC(=O)CCC)(OC(=O)CCC)OC(=O)CCC` [compound 7, Silicon tetrabutyrate]: in data set [1] (setting [5]), the Hydrolysis rate result is “Fast”.
`CCCCO[Si](OCCCC)(OCCCC)O[Si](OCCCC)(OCCCC)OCCCC` [compound 21]: the Hydrolysis rate result in data set [1] (setting [4]) is “Slow (Slow - 1 month)”.
Take `Cl/C=C\Cl` [cis-DCE, cis-dichloroethylene]: the “incubation time after which dechlorination of the substance was observed” value in data set [3] is reported as “about 90 days”.
As for `CCCO[Si](OCCC)(OCCC)OCCC` [compound 1, Tetrapropoxysilane], in data set [1] (setting [5]), the Hydrolysis rate entry is listed as “Slow (Slow - 1 month)”.
For the compound `CC(=O)O[Si](OC(C)=O)(OC(C)=O)OC(C)=O` [compound 5, Silicon tetraacetate], the Hydrolysis rate result in data set [1] (setting [5]) is recorded as “Very Fast”.
Same read-out and setting: for `CC(C)O[Si](OC(C)C)(OC(C)C)OC(C)C` [compound 18, Tetrakis(1-methylethoxy) silane] the value was “Slow (Slow - 1 month)”; for `CCC(C)CO[Si](OCC(C)CC)(OCC(C)CC)OCC(C)CC` (stereo not drawn) [compound 13, Tetrakis(2-methylbutoxy) silane], “Very Slow”.
